Assay results from ChEMBL document CHEMBL3808363, “2-(Thienothiazolylimino)-1,3-thiazolidin-4-ones inhibit cell division cycle 25 A phosphatase” (Bioorg Med Chem, 2016).
Activity calls are given as the source filed them. The rule behind the calls is not given here.

Legend:
[1] = target: T1, M-phase inducer phosphatase 1 (Homo sapiens, UniProt P30304); assay: Inhibition of human recombinant full length GST-tagged CDC25A transfected in Escherichia coli BL21-DE3 using 3-O-methylfluorescein phosphate as substrate incubated for 20 mins followed by substrate addition measured every 10 mins for 2 hrs by fluorimetric assay
T1 sequence (P30304 whole entry): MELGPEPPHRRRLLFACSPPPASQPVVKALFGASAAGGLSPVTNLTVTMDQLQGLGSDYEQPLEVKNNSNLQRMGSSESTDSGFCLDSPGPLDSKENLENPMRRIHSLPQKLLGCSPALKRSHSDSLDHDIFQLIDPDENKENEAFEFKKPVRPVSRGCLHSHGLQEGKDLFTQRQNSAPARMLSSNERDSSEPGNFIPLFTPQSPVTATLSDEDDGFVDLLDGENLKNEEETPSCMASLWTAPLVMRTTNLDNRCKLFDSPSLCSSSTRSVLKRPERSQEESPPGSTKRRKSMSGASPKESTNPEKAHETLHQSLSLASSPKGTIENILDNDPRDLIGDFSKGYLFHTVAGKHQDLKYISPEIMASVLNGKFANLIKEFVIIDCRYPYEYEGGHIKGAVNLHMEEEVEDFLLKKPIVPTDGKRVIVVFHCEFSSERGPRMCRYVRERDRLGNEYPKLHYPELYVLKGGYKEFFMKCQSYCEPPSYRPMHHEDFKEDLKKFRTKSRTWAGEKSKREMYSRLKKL

[2] = target: T2, M-phase inducer phosphatase 1 (Homo sapiens) (UniProt P30304); assay: (§1) Inhibition of human recombinant full length GST-tagged CDC25A transfected in Escherichia coli BL21-DE3 using 3-O-methylfluorescein phosphate as substrate at 10 uM incubated for 20 mins followed by substrate addition measured every 10 mins for 2 hrs by fluorimetric assay in presence of 0.1% BSA
T2 sequence (whole entry): T1 sequence (P30304 whole entry)

[3] = target: T2, M-phase inducer phosphatase 1 (Homo sapiens); assay: as §1, with “0.01% triton X 100” for “0.1% BSA”
[4] = target: T2, M-phase inducer phosphatase 1 (Homo sapiens); assay: as §1, with “0.025% triton X 100” for “0.1% BSA”
[5] = target: T2, M-phase inducer phosphatase 1 (Homo sapiens); assay: as §1, with “0.05% triton X 100” for “0.1% BSA”
[6] = target: T2, M-phase inducer phosphatase 1 (Homo sapiens); assay: as §1, with “0.5% triton X 100” for “0.1% BSA”
[7] = target: T2, M-phase inducer phosphatase 1 (Homo sapiens); assay: Reversible binding affinity to human recombinant full length GST-tagged CDC25A transfected in Escherichia coli BL21-DE3 after 1 hr by MALDI-TOF mass spectrometry
[8] = target: T1, M-phase inducer phosphatase 1; assay: (§2) Mixed type inhibition of human recombinant full length GST-tagged CDC25A transfected in Escherichia coli BL21-DE3 assessed as enzyme/inhibitor complex using 3-O-methylfluorescein phosphate as substrate at 10 uM incubated for 20 mins followed by substrate addition measured every 10 mins for 2 hrs by fluorimetric assay
[9] = target: T1, M-phase inducer phosphatase 1; assay: as §2, with “enzyme/substrate/inhibitor” for “enzyme/inhibitor”
[10] = target: T1, M-phase inducer phosphatase 1; assay: as §2, with “as enzyme/substrate/inhibitor” for “as enzyme/inhibitor”, “at 20” for “at 10”
MCF7 [11] = assay: Cell cycle arrest in human MCF7 cells assessed as accumulation at G0/G1 phase at IC50 concentration after 48 hrs by propidium iodide staining-based flow cytometry (reference value: 66.7 +/- 1.6%); assay type: functional
MDA-MB-231 [12] = assay: Cell cycle arrest in human MDA-MB-231 cells assessed as accumulation at G0/G1 phase at IC50 concentration after 48 hrs by propidium iodide staining-based flow cytometry (reference value: 57.3 +/- 0.3%); assay type: functional
MDA-MB-231 [13] = assay: Cell cycle arrest in human MDA-MB-231 cells assessed as accumulation at S phase at IC50 concentration after 48 hrs by propidium iodide staining-based flow cytometry (reference value: 21.7 +/- 0.3%); assay type: functional
MDA-MB-231 [14] = assay: Cell cycle arrest in human MDA-MB-231 cells assessed as accumulation at G2/M phase at IC50 concentration after 48 hrs by propidium iodide staining-based flow cytometry (reference value: 20.9 +/- 1.1%); assay type: functional
MDA-MB-231 [15] = assay: Cell cycle arrest in human MDA-MB-231 cells assessed as accumulation at subG1 phase at IC50 concentration after 48 hrs by propidium iodide staining-based flow cytometry; assay type: functional
MCF7 [16] = assay: Cell cycle arrest in human MCF7 cells assessed as accumulation at subG1 phase at IC50 concentration after 48 hrs by propidium iodide staining-based flow cytometry; assay type: functional
MCF7 [17] = assay: Induction of apoptosis in human MCF7 cells assessed as chromatin condensation after 24 to 48 hrs by DAPI staining based UV fluorescent microscopy; assay type: functional, cell-based
MDA-MB-231 [18] = assay: Induction of apoptosis in human MDA-MB-231 cells assessed as chromatin condensation after 24 to 48 hrs by DAPI staining based UV fluorescent microscopy; assay type: functional, cell-based
MCF7 [19] = assay: Induction of apoptosis in human MCF7 cells assessed as nuclear fragmentation after 24 hrs by dihydro-rhodamine 123/hoechst […] staining based UV fluorescent microscopy; assay type: functional, cell-based
MDA-MB-231 [20] = assay: Induction of apoptosis in human MDA-MB-231 cells assessed as nuclear fragmentation after 24 hrs by dihydro-rhodamine 123/hoechst […] staining based UV fluorescent microscopy; assay type: functional, cell-based
[21] = target: Cyclin-dependent kinase 1 (Homo sapiens) (UniProt P06493); assay: Effect on CDK1 phosphorylation in human MCF7 cells after 6 hrs by Western blot analysis; assay type: cell-based
Sequence of Cyclin-dependent kinase 1 (Homo sapiens) (P06493 whole entry, looked up): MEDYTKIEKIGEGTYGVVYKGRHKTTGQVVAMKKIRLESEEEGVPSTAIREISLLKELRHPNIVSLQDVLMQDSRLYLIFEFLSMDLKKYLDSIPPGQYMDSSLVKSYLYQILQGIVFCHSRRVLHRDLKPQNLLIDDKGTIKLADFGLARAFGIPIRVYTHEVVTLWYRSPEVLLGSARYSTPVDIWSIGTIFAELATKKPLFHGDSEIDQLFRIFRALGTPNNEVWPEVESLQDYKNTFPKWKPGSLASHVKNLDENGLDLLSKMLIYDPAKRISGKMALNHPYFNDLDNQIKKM

MCF7 [22] = assay: Induction of reactive oxygen species production in human MCF7 cells at IC50 concentration up to 6 hrs by DCF-2DA dye based flow cytometry; assay type: functional, cell-based
MDA-MB-231 [23] = assay: Induction of reactive oxygen species production in human MDA-MB-231 cells at IC50 concentration up to 6 hrs by DCF-2DA dye based flow cytometry; assay type: functional, cell-based
MCF7 [24] = assay: Increase in RNS levels in human MCF7 cells at IC50 concentration incubated for 24 hrs by DAF-2DA dye based flow cytometry; assay type: functional, cell-based
MCF7 [25] = assay: Increase in peroxynitryl radical levels in human MCF7 cells at IC50 concentration incubated for 24 hrs by DHR dye based flow cytometry; assay type: functional, cell-based
MDA-MB-231 [26] = assay: Increase in peroxynitryl radical levels in human MDA-MB-231 cells at IC50 concentration incubated for 24 hrs by DHR dye based flow cytometry; assay type: functional, cell-based
MDA-MB-231 [27] = assay: Cytotoxicity against human MDA-MB-231 cells assessed as inhibition of cell growth after 72 hrs by MTT assay; assay type: functional, cell-based; conditions: MDA-MB-231, 72 h
MCF7 [28] = assay: Cytotoxicity against human MCF7 cells assessed as inhibition of cell growth at IC50 concentration after 72 hrs by trypan blue assay; assay type: functional
MDA-MB-231 [29] = assay: Induction of autophagy in human MDA-MB-231 cells assessed as acidic vesicles at 8.4 uM over 3 days by acridine orange dye based flow cytometry; assay type: functional, cell-based
MDA-MB-231 [30] = assay: Cytotoxicity against human MDA-MB-231 cells assessed as inhibition of cell growth at IC50 concentration after 72 hrs by trypan blue assay; assay type: functional

COc1ccc(/C=C2/S/C(=N\c3nc4cc(-c5ccc(Cl)cc5)sc4s3)NC2=O)cc1
IC50 [1]: 6.2 µM
inhibition [2]: 21.8%
inhibition [3]: 28.2%
inhibition [4]: 27.1%
inhibition [5]: 54.4%
inhibition [6]: 97.5%
Activity [7]: Active
Ki [8]: 4.8 µM
Ki [9]: 5.1 µM
Ki [10]: 3.9 µM
Activity (MCF7 [11]): 58.8%
Activity (MDA-MB-231 [12]): 58.3%
Activity (MDA-MB-231 [13]): 25.8%
Activity (MDA-MB-231 [14]): 15.9%
Activity (MDA-MB-231 [15]): inactive
Activity (MCF7 [16]): inactive
Activity (MCF7 [17]): inactive
Activity (MDA-MB-231 [18]): inactive
Activity (MCF7 [19]): inactive
Activity (MDA-MB-231 [20]): inactive
Activity [21]: inactive
Activity (MCF7 [22]): inactive
Activity (MDA-MB-231 [23]): inactive
Activity (MCF7 [24]): Active
Activity (MCF7 [25]): Active
Activity (MDA-MB-231 [26]): Active
IC50 (MDA-MB-231 [27]): 8.4 µM
growth inhibition (GI) (MCF7 [28]): 45%
Activity (MDA-MB-231 [29]): inactive
growth inhibition (GI) (MDA-MB-231 [30]): 70%
